A word on the IC50: it is the concentration at which inhibition is half-maximal.

The text below walks through data of US7160874B2, “Phenylalanine derivatives” (Ajinomoto Co., Inc., priority 1999, dated 2007).

One assay deals with T1, integrin α4β1 (Homo sapiens, UniProt P05556+P13612).
T1 construct: cell strain Jurkat (ATCC TIB-152) of human T cells, known to express integrin α4β1; host or cells: Jurkat (human T cell line)
As to the kind of experiment: VCAM antagonist activity (VCAM-1/α4β1 binding assay). It is filed as cell-based. The note with it: Jurkat cells binding to VCAM-1; read-out: VCAM antagonistic activity (IC50) α4β1. The gist of the method:
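Plates coated overnight at 4° C with recombinant human VCAM-1 (500 ng/ml, pH 9.6) and blocked. Calcein-AM-labelled Jurkat cells (α4β1) added with compound in HEPES/DMEM/0.1% BSA, 30 min at room temperature; unbound cells shaken off, bound fluorescence read at 485/535 nm. IC50 from binding relative to compound-free wells.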

The target of another assay is T2, integrin α4β7 (Homo sapiens, UniProt P13612+P26010).
T2 construct: lymphoma cell strain RPMI-8866 of human B cells, known to express integrin α4β7; endogenous in cells; host or cells: RPMI-8866 (human B lymphoma cell line)
T2 sequence (P13612 34-1032): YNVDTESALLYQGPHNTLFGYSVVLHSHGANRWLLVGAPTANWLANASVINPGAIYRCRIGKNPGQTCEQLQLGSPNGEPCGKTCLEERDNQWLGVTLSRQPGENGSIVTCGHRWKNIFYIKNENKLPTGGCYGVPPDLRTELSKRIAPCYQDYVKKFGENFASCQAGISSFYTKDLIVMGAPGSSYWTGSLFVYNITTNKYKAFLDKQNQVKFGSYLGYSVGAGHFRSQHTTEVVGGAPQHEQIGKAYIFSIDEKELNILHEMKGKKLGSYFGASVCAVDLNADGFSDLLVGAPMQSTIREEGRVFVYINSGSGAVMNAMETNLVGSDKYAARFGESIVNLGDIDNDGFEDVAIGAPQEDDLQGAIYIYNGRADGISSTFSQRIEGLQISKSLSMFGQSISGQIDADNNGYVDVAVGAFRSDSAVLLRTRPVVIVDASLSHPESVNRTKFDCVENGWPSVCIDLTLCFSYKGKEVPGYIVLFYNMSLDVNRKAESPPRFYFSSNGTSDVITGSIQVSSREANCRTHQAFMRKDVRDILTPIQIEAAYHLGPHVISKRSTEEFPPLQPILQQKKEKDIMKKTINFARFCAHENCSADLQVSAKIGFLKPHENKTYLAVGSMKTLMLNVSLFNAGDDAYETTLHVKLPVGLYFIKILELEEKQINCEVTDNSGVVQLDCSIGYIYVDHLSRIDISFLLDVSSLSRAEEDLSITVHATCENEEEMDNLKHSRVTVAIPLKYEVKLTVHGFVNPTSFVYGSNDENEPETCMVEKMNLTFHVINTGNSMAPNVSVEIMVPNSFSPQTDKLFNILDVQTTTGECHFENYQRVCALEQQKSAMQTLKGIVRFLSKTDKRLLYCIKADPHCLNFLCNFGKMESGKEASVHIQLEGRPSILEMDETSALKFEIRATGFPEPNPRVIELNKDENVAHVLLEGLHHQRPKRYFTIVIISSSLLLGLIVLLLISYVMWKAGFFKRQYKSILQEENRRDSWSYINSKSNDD
T2 sequence (P26010 20-798): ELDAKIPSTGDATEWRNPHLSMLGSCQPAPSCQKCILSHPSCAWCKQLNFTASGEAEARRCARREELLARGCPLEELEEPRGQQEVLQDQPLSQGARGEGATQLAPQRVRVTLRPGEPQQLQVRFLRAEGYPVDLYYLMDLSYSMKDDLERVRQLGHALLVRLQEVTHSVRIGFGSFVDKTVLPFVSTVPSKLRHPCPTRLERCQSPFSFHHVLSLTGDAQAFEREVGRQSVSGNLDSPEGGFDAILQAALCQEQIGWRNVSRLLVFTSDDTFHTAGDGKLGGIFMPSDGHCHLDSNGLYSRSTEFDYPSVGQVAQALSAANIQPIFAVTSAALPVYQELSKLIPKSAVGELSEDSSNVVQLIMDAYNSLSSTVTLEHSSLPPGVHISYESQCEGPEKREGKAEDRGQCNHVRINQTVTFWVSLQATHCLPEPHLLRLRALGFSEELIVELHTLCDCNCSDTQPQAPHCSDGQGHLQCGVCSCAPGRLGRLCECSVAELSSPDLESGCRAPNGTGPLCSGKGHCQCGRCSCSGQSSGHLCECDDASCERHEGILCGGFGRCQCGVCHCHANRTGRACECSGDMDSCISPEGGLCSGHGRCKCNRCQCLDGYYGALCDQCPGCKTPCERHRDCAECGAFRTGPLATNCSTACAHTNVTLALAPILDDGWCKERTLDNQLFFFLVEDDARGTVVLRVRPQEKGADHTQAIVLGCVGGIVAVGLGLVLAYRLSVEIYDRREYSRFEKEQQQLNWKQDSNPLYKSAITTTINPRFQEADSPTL
As to the kind of experiment: VCAM antagonistic activity (VCAM-1/α4β7 binding assay). The note with it: RPMI-8866 cells binding to VCAM-1; read-out: VCAM antagonistic activity (IC50) α4β7. It is filed as cell-based. The gist of the method:
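Calcein-AM-labelled human B-lymphoma RPMI-8866 cells bound to plate-coated recombinant human VCAM-1 in HEPES/DMEM/0.1% BSA with 4 mM MnCl2, with compound, 30 min at room temperature. Unbound cells removed by shaking; bound-cell fluorescence (ex 485/em 535 nm) versus compound-free wells gave IC50, binned.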

T1 sequence (P05556 21-798, one chain of several): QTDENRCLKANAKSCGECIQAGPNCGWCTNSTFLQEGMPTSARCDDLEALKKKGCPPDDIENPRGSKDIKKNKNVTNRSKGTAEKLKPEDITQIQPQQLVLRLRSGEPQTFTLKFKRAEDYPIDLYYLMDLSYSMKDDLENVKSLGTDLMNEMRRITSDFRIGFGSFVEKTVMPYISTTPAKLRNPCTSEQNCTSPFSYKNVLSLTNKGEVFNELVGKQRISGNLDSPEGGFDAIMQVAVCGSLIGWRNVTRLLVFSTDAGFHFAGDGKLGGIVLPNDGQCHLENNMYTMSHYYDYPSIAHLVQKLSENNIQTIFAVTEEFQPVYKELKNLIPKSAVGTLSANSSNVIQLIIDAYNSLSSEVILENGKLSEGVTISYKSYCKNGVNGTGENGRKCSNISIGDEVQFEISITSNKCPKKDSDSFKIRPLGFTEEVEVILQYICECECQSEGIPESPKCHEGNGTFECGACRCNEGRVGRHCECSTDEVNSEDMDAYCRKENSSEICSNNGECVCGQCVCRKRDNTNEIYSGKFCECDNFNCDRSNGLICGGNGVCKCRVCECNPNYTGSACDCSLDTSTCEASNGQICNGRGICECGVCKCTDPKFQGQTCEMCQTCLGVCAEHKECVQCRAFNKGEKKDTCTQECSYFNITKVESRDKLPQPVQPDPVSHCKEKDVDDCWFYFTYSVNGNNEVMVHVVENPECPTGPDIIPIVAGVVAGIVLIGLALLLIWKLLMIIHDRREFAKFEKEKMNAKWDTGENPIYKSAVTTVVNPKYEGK

Take `CSc1ncc(Cl)c(C(=O)Nc2ccc(C[C@H](NC(=O)C3(C(=O)N(C)C)CC3)C(=O)O)cc2)n1` [Example 85, N-[1-N,N-dimethylaminocarbonylcyclopropane-1-ylcarbonyl]-4-({[5-chloro-2-(methylthio)pyrimidine-4-yl]carbonyl}-amino)-L-phenylalanine]: the IC50 was 100 to 2000 nM on integrin α4β1 and less than 20 nM at integrin α4β7.
As for `CN(C)C(=O)C1(C(=O)N[C@@H](Cc2ccc(NC(=O)c3cc(F)c(F)cc3Cl)cc2)C(=O)O)CC1` [Example 86], the IC50 at integrin α4β1 is 100 to 2000 nM; at integrin α4β7 it was 20 to 100 nM.
As to `CN(C)C(=O)C1(C(=O)N[C@@H](Cc2ccc(NC(=O)c3cc(Br)ccc3Cl)cc2)C(=O)O)CC1` [Example 87], the IC50 at integrin α4β1 was in the range of 100 to 2000 nM; on integrin α4β7 it was 20 to 100 nM.
Turning to `CN(C)C(=O)C1(C(=O)N[C@@H](Cc2ccc(NC(=O)c3cc(Br)ccc3Br)cc2)C(=O)O)CC1` [Example 88], the IC50 on integrin α4β1 and on integrin α4β7 was 100 to 2000 nM throughout.
For the compound `COc1ccc(Br)c(C(=O)Nc2ccc(C[C@H](NC(=O)C3(C(=O)N(C)C)CC3)C(=O)O)cc2)c1` [Example 89], the IC50 at integrin α4β1 and at integrin α4β7 was 100 to 2000 nM in each case.
Consider `CN(C)C(=O)C1(C(=O)N[C@@H](Cc2ccc(NC(=O)c3c(Cl)cccc3Cl)cc2)C(=O)O)CC1` [Example 90, N-[1-(N,N-dimethylaminocarbonyl)-cyclopropane-1-ylcarbonyl]-4-{[2,6-dichlorophenylcarbonyl]amino}-L-phenylalanine], for which the IC50 on integrin α4β1 is 100 to 2000 nM; on integrin α4β7, 20 to 100 nM.
Taken in the same sequence, the figures for `CCC(CC)(C(=O)N[C@@H](Cc1ccc(NC(=O)c2c(Cl)cccc2Cl)cc1)C(=O)O)C(=O)N1CCCC1` [Example 91, N-[2-(pyrrolidine-1-ylcarbonyl)-2-ethyl-butanoyl]-4-{[(2,6-dichlorophenyl)carbonyl]amino}-L-phenylalanine] were less than 20 nM and less than 20 nM.
Consider `CCC(CC)(C(=O)N[C@@H](Cc1ccc(NC(=O)c2c(F)cccc2C(F)(F)F)cc1)C(=O)O)C(=O)N1CCCC1` [Example 92, N-(2-pyrrolidine-1-ylcarbonyl-2-ethyl-butanoyl)-4-({[2-fluoro-6-(trifluoromethyl)phenyl]carbonyl}amino)-L-phenylalanine], for which the IC50 at integrin α4β1 was 20 to 100 nM; at integrin α4β7, less than 20 nM.
For `CCC(CC)(C(=O)N[C@@H](Cc1ccc(NC(=O)c2snnc2-c2ccccc2)cc1)C(=O)O)C(=O)N1CCCC1` [Example 93], the IC50 on integrin α4β1 was 100 to 2000 nM; on integrin α4β7 it was less than 20 nM.
Taken in the same sequence, the figures for `CCC(CC)(C(=O)N[C@@H](Cc1ccc(NC(=O)c2nc(SC)ncc2Cl)cc1)C(=O)O)C(=O)N1CCCC1` [Example 94, N-[2-(pyrrolidine-1-ylcarbonyl)-2-ethyl-butanoyl]-4-({[5-chloro-2-(methylthio)pyrimidine-4-yl]carbonyl}amino)-L-phenylalanine] were 20 to 100 nM and less than 20 nM.
Consider `CCC(CC)(C(=O)N[C@@H](Cc1ccc(NC(=O)c2cc(F)c(F)cc2Cl)cc1)C(=O)O)C(=O)N1CCCC1` [Example 95], for which the IC50 was 20 to 100 nM at integrin α4β1 and less than 20 nM on integrin α4β7.
As for `CCC(CC)(C(=O)N[C@@H](Cc1ccc(NC(=O)c2cc(Br)ccc2Cl)cc1)C(=O)O)C(=O)N1CCCC1` [Example 96], the 50% inhibitory concentration (IC50) was 20 to 100 nM on integrin α4β1 and less than 20 nM on integrin α4β7.
In the case of `CCC(CC)(C(=O)N[C@@H](Cc1ccc(NC(=O)c2ccccc2[N+](=O)[O-])cc1)C(=O)O)C(=O)N1CCCC1` [Example 97], the values for the IC50 at integrin α4β1 and at integrin α4β7 were 20 to 100 nM and less than 20 nM, respectively.
For the compound `CCC(CC)(C(=O)N[C@@H](Cc1ccc(NC(=O)c2cc(Br)ccc2Br)cc1)C(=O)O)C(=O)N1CCCC1` [Example 98], the IC50 on integrin α4β1 is 20 to 100 nM; at integrin α4β7, less than 20 nM.
On the same counts, the results for `CCC(CC)(C(=O)N[C@@H](Cc1ccc(NC(=O)c2cc(OC)ccc2Br)cc1)C(=O)O)C(=O)N1CCCC1` [Example 99] are 20 to 100 nM and 20 to 100 nM.
